Our source for the DC50 values is patent US20240190880A1 (THE REGENTS OF THE UNIVERSITY OF MICHIGAN, priority 2021, published 2024).

For one assay, the target named is T1, ER (Homo sapiens, UniProt P03372).
T1 construct: host or cells: T47D and MCF7 human breast cancer cells
T1 sequence (P03372 1-595): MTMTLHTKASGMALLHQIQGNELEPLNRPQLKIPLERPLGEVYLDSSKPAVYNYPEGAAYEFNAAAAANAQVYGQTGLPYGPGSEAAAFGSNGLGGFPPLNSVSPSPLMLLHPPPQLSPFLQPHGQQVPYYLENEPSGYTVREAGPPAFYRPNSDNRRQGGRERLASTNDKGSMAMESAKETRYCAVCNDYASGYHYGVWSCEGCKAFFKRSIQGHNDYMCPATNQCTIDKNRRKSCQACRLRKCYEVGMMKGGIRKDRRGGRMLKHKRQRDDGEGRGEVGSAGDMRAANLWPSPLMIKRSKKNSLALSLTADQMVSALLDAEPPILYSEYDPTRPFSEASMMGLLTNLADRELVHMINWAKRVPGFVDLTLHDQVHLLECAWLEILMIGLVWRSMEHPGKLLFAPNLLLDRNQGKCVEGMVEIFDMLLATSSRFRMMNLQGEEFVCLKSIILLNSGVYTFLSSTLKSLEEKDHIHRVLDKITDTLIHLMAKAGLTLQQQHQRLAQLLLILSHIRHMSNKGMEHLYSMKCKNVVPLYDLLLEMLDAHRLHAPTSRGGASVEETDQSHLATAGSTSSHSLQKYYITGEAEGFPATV
Kind of assay: ER degradation activity, in-cell western blot analysis in T47D cells. Format: cell-based. As to conditions: 16 hours, Table A does not say which cell line (T47D or MCF7), read-out: Potency (DC50). The essentials:
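T47D cells cultured in DMEM with 10% FBS, treated with compounds (final 0.5% DMSO) for 16 h. ER level measured by in-cell western with anti-rabbit-680/anti-mouse-800 near-infrared detection. Relative ER percentage calculated against untreated and DMSO-treated wells set as 100%.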
With `C[C@@H]1Cc2c([nH]c3ccccc23)[C@@H](c2c(F)cc(N3CCC(CN4CCCC(N5Cc6cc7c(cc6C5)C(=O)N(C5CCC(=O)NC5=O)C7=O)CC4)CC3)cc2F)N1CC(F)F` (stereo partly drawn) [E 130, 6-(1-((1-(4-((1R,3R)-2-(2,2-difluoroethyl)-3-methyl-2,3,4,9-tetrahydro-1H-pyrido[3,4-b]indol-1-yl)-3,5-difluorophenyl)piperidin-4-yl)methyl)azepan-4-yl)-2-(2,6-dioxopiperidin-3-yl)-6,7-dihydropyrrolo[3,4-f]isoindole-1,3(2H,5H)-dione], the DC50 (usually the midpoint of the concentration-degradation curve) is < 10 nM.

On to `C[C@@H]1Cc2c([nH]c3ccccc23)[C@@H](c2c(F)cc(N3CCC4(CC3)CC(C(=O)N3CCC(N5Cc6cc7c(cc6C5)C(=O)N(C5CCC(=O)NC5=O)C7)CC3)C4)cc2F)N1CC(F)F` (stereo partly drawn) [E 101, 3-(6-(1-(7-(4-((1R,3R)-2-(2,2-difluoroethyl)-3-methyl-2,3,4,9-tetrahydro-1H-pyrido[3,4-b]indol-1-yl)-3,5-difluorophenyl)-7-azaspiro[3.5]nonane-2-carbonyl)piperidin-4-yl)-1-oxo-3,5,6,7-tetrahydropyrrolo[3,4-f]isoindol-2(1H)-yl)piperidine-2,6-dione], for which the DC50 was < 10 nM.

Regarding `C[C@@H]1Cc2c([nH]c3ccccc23)[C@@H](c2c(F)cc(N3CC(F)(C(=O)N4CCC(F)(CN5Cc6cc7c(cc6C5)C(=O)N(C5CCC(=O)NC5=O)C7=O)CC4)C3)cc2F)N1CC(F)F` (stereo partly drawn) [E 210, 6-((1-(1-(4-((1R,3R)-2-(2,2-difluoroethyl)-3-methyl-2,3,4,9-tetrahydro-1H-pyrido[3,4-b]indol-1-yl)-3,5-difluorophenyl)-3-fluoroazetidine-3-carbonyl)-4-fluoropiperidin-4-yl)methyl)-2-(2,6-dioxopiperidin-3-yl)-6,7-dihydropyrrolo[3,4-f]isoindole-1,3(2H,5H)-dione], the DC50 was > 100 nM.

Take `C[C@@H]1Cc2c([nH]c3ccccc23)[C@@H](c2cnc(N3CCC4(CCN(C(=O)CN5Cc6cc7c(cc6C5)C(=O)N(C5CCC(=O)NC5=O)C7=O)CC4)CC3)nc2)N1CC(F)F` (stereo partly drawn) [E 258, 6-(2-(9-(5-((1R,3R)-2-(2,2-difluoroethyl)-3-methyl-2,3,4,9-tetrahydro-1H-pyrido[3,4-b]indol-1-yl)pyrimidin-2-yl)-3,9-diazaspiro[5.5]undecan-3-yl)-2-oxoethyl)-2-(2,6-dioxopiperidin-3-yl)-6,7-dihydropyrrolo[3,4-f]isoindole-1,3(2H,5H)-dione]: the DC50 was < 10 nM.

Turning to `C[C@@H]1Cc2c([nH]c3ccccc23)[C@@H](c2c(F)cc(N3CCCC(CN4CCC(C(=O)N5Cc6cc7c(cc6C5)C(=O)N(C5CCC(=O)NC5=O)C7)CC4)C3)cc2F)N1CC(F)F` (stereo partly drawn) [E 92, 3-(6-(1-((1-(4-((1R,3R)-2-(2,2-difluoroethyl)-3-methyl-2,3,4,9-tetrahydro-1H-pyrido[3,4-b]indol-1-yl)-3,5-difluorophenyl)piperidin-3-yl)methyl)piperidine-4-carbonyl)-1-oxo-3,5,6,7-tetrahydropyrrolo[3,4-f]isoindol-2(1H)-yl)piperidine-2,6-dione], the 50% degradation concentration (DC50) is < 10 nM.

Consider `O=C1CCC(N2C(=O)c3cc4c(cc3C2=O)CN(CC2CCN(CC3CN(c5ccc([C@@H]6c7ccc(O)cc7CC[C@@H]6c6ccc(F)cc6)cc5)C3)CC2)C4)C(=O)N1` (stereo partly drawn) [E 277, 2-(2,6-dioxopiperidin-3-yl)-6-((1-((1-(4-((1R,2S)-2-(4-fluorophenyl)-6-hydroxy-1,2,3,4-tetrahydronaphthalen-1-yl)phenyl)azetidin-3-yl)methyl)piperidin-4-yl)methyl)-6,7-dihydropyrrolo[3,4-f]isoindole-1,3(2H,5H)-dione], for which the DC50 was > 100 nM.

As for `C[C@@H]1Cc2c([nH]c3ccccc23)[C@@H](c2c(F)cc(N3CC4(CC(C(=O)N5CCC(CN6Cc7cc8c(cc7C6)C(=O)N(C6CCC(=O)NC6=O)C8=O)CC5)C4)C3)cc2F)N1CC(F)F` (stereo partly drawn) [E 115, 6-((1-(2-(4-((1R,3R)-2-(2,2-difluoroethyl)-3-methyl-2,3,4,9-tetrahydro-1H-pyrido[3,4-b]indol-1-yl)-3,5-difluorophenyl)-2-azaspiro[3.3]heptane-6-carbonyl)piperidin-4-yl)methyl)-2-(2,6-dioxopiperidin-3-yl)-6,7-dihydropyrrolo[3,4-f]isoindole-1,3(2H,5H)-dione], the 50% degradation concentration (DC50) is < 10 nM.

As for `O=C1CCC(N2C(=O)c3cc4c(cc3C2=O)CN(CC(=O)N2CCCC(Oc3ccc([C@@H]5c6ccc(O)cc6CC[C@@H]5c5ccccc5)cc3)C2)C4)C(=O)N1` (mixture of isomers) [E 21, Rac-2-(2,6-dioxopiperidin-3-yl)-6-(2-(3-(4-((1R,2S)-6-hydroxy-2-phenyl-1,2,3,4-tetrahydronaphthalen-1-yl)phenoxy)piperidin-1-yl)-2-oxoethyl)-6,7-dihydropyrrolo[3,4-f]isoindole-1,3(2H,5H)-dione], the DC50 was > 100 nM.

For the compound `O=C1CCC(N2C(=O)c3cc4c(cc3C2=O)CN(CC2(F)CCN(C(=O)C3CN(c5ccc([C@@H]6c7ccc(O)cc7CC[C@@H]6c6ccccc6)cc5)C3)CC2)C4)C(=O)N1` (stereo partly drawn) [E 199, 2-(2,6-dioxopiperidin-3-yl)-6-((4-fluoro-1-(1-(4-((1R,2S)-6-hydroxy-2-phenyl-1,2,3,4-tetrahydronaphthalen-1-yl)phenyl)azetidine-3-carbonyl)piperidin-4-yl)methyl)-6,7-dihydropyrrolo[3,4-f]isoindole-1,3(2H,5H)-dione], the 50% degradation concentration (DC50) was > 100 nM.

As to `C[C@H]1CC2(CCN(c3ccc([C@@H]4c5ccc(O)cc5CC[C@@H]4c4ccccc4)cc3)CC2)CN1C(=O)CN1Cc2cc3c(cc2C1)C(=O)N(C1CCC(=O)NC1=O)C3=O` (mixture of isomers) [E 142, Rac-2-(2,6-dioxopiperidin-3-yl)-6-(2-((S)-8-(4-((1R,2S)-6-hydroxy-2-phenyl-1,2,3,4-tetrahydronaphthalen-1-yl)phenyl)-3-methyl-2,8-diazaspiro[4.5]decan-2-yl)-2-oxoethyl)-6,7-dihydropyrrolo[3,4-f]isoindole-1,3(2H,5H)-dione], the DC50 was 10 to 100 nM.

The same assay, now with this note: compounds 16 hours, Table A does not say whether T47D or MCF7, read-out: Potency (DC50).
Take `C[C@@H]1Cc2c([nH]c3ccccc23)[C@@H](c2ncc(C3CCC(C(=O)N4CCC(N5Cc6cc7c(cc6C5)C(=O)N(C5CCC(=O)NC5=O)C7=O)CC4)CC3)cc2F)N1CC(F)F` (stereo partly drawn) [E 406, 6-(1-(4-(6-((1S,3R)-2-(2,2-difluoroethyl)-3-methyl-2,3,4,9-tetrahydro-1H-pyrido[3,4-b]indol-1-yl)-5-fluoropyridin-3-yl)cyclohexane-1-carbonyl)piperidin-4-yl)-2-(2,6-dioxopiperidin-3-yl)-6,7-dihydropyrrolo[3,4-f]isoindole-1,3(2H,5H)-dione]: the DC50 was > 100 nM.

Regarding `C[C@@H]1Cc2cc(O)ccc2[C@@H](c2c(F)cc(NC3CC4(CCN(C(=O)CN5Cc6cc7c(cc6C5)C(=O)N(C5CCC(=O)NC5=O)C7=O)CC4)C3)cc2F)N1CC(F)F` (stereo partly drawn) [E 451, 6-(2-(2-((4-((1S,3R)-2-(2,2-difluoroethyl)-6-hydroxy-3-methyl-1,2,3,4-tetrahydroisoquinolin-1-yl)-3,5-difluorophenyl)amino)-7-azaspiro[3.5]nonan-7-yl)-2-oxoethyl)-2-(2,6-dioxopiperidin-3-yl)-6,7-dihydropyrrolo[3,4-f]isoindole-1,3(2H,5H)-dione], the DC50 is 10 to 100 nM.

Turning to `O=C1CCC(N2C(=O)c3cc4c(cc3C2=O)CC2(C4)CN(CC3CCN(c4ccc([C@@H]5c6ccc(O)cc6CC[C@@H]5c5ccccc5)cc4)CC3)C2)C(=O)N1` (stereo partly drawn) [E 500, 2′-(2,6-dioxopiperidin-3-yl)-1-((1-(4-((1R,2S)-6-hydroxy-2-phenyl-1,2,3,4-tetrahydronaphthalen-1-yl)phenyl)piperidin-4-yl)methyl)-5′,7′-dihydro-1′H-spiro[azetidine-3,6′-cyclopenta[f]isoindole]-1′,3′(2′H)-dione], the DC50 is > 100 nM.

On to `C[C@@H]1Cc2c([nH]c3ccccc23)[C@@H](c2ccc(C3=CCC(C(=O)N4CCC(N5Cc6cc7c(cc6C5)C(=O)N(C5CCC(=O)NC5=O)C7=O)CC4)CC3)cc2F)N1CC(C)(F)F` (stereo partly drawn) [E 482, 6-(1-(4′-((1R,3R)-2-(2,2-difluoropropyl)-3-methyl-2,3,4,9-tetrahydro-1H-pyrido[3,4-b]indol-1-yl)-3′-fluoro-2,3,4,5-tetrahydro-[1,1′-biphenyl]-4-carbonyl)piperidin-4-yl)-2-(2,6-dioxopiperidin-3-yl)-6,7-dihydropyrrolo[3,4-f]isoindole-1,3(2H,5H)-dione], for which the DC50 is > 100 nM.

For the compound `O=C1CCC(N2C(=O)c3cc4c(cc3C2=O)CN(C[C@H]2CC[C@H](C(=O)N3CC(Oc5ccc([C@@H]6c7ccc(O)cc7CC[C@@H]6c6ccccc6)cc5)C3)CC2)C4)C(=O)N1` (mixture of isomers) [E 498, 2-(2,6-dioxopiperidin-3-yl)-6-(((IRS,4SR)-4-(3-(4-((1R,2S)-6-hydroxy-2-phenyl-1,2,3,4-tetrahydronaphthalen-1-yl)phenoxy)azetidine-1-carbonyl)cyclohexyl)methyl)-6,7-dihydropyrrolo[3,4-f]isoindole-1,3(2H,5H)-dione], the DC50 was in the range of 10 to 100 nM.
